The values below come from patent US20240108637A1, “EPITE[…] AND/OR A STEROID SULFATASE INHIBITOR FOR USE IN TREATING OR IMPROVING AGE RELATED COGNITIVE IMPAIRMENT” (U[…] DE OLAVIDE, priority 2020, published 2024).

“Also recorded” adds a separate entry of the source.

One assay deals with C. elegans. Nature of the assay: Lifespan assays in C. elegans. Format: in vivo, Caenorhabditis elegans. Here is the method: F2 L4 animals were shifted to 25° C. (t=0). ES treatment started at L4 stage, control and treated plates were prepared fresh and animals transferred each three days until death. Animals lost or dead by non-physiological causes were censured. Survival curves were generated using the product-limit method of Kaplan and Meier. The log-rank (Mantel-Cox) test was used to evaluate differences in survival and […] lower than 0.05 were considered significant.

The test system of a further assay is aged mice. In words: Passive avoidance test in aged mice (STM and LTM). Format: in vivo. Here is the method:
The first, object recognition, after training with identical objects, tests the ability to identify different objects exposed together with a familiar one. When this happens, the object discrimination index is positive and higher than 0.1. […] For this purpose, during training, the entry latency to the preferred site is established and the aversive stimulus is administered.
During short- and long-term memory tests (STM and LTM) if the mouse associated the preferred place to the aversive stimulus, the input latency increases with respect to training.

Assay [1] deals with polyglutamine repeats fused to YFP (Q40 background, strain AM141). In words: Huntington neurodegenerative model: number of polyglutamine aggregates. To be noted: 1 μg/ml, 5-day old worms. Format: in vivo, C. elegans.

With `NS(=O)(=O)Oc1ccc2c3c(c(=O)oc2c1)CCCCC3` [STX64], the “dependence of the increase of longevity on daf-36” value in the assay with C. elegans (daf-36 mutant, 1 μg/ml, FIG. 2m) is reported as “daf-36 is necessary for the increase of longevity; also recorded: DAF-36 is required for the longevity”. Also, the lifespan result with C. elegans (sul-2 (gk187) deletion background, 1 μg/ml, UV-killed E. coli, FIG. 1D) is “does not further increase the longevity”; with C. elegans (wild type animals, 1 μg/ml, UV-killed E. coli, FIG. 1D) it was “increases lifespan”; with C. elegans (wild type, non-UV E. coli, FIG. 7a), “increases lifespan of wild type”. Moreover, the longevity result with C. elegans (wild type animals, text statement (FIG. 1d, FIG. 7a-c)) is “increase in longevity; also recorded: extends lifespan”. In addition, the “short term and long-term memory in passive avoidance test” value with aged mice (1-month treatment in 18 months old mice, FIG. 18B) is “significant improvement”. Besides, the “learning (STM) and memory (LTM), passive avoidance test” value in the assay on aged mice (aged mice, vs vehicle-treated, FIG. 21, listed as STX) was “showed significantly both learning (STM) and ability to store information (memory); also recorded: significant improvement in both learning (STM) and ability to store information (memory)”. In assay [1], the “number of polyglutamine aggregates” value is “aggregates are reduced; also recorded: reduced the number of aggregates”.
